Test results from patent publication US6521814B1, “Use of ligands for treatment of diseases responsive to retinoids” (Institut National de la Santa et de la Recherche Medicale, priority 1997, dated 2003).

Experiments:
RARα−/− F9 cells [1] = assay: Morphological differentiation of F9 cell aggregates into visceral endoderm (VE)-like cells (morphology, RT-PCR of markers); type: cell-based, murine; parameters: key to proportion of outer layer of cells displaying VE morphology: +++: more than 80%; ++: 50-80%; +: 10-50%; ±: not more than 10%; (−): no visible effect; conditions: 10 d
Source text: (§1) Similarly, after 10 d of treatment, >80% of the outer layer of RARα^−/− and RXRα^−/−/RARα^−/− cell aggregates differentiated into VE-like cells, which were indistinguishable from those of WT and RXRα^−/− cells (FIG. 23A, compare f with panels b and d; and Table 9). […] To exclude the possibility that this very poor differentiation of the RXRα^−/−/RARγ^−/− cells could be due to some clonal variation, rather than the presence of the RXRα-null mutation in the RARγ-null background, we expressed the RXRα cDNA in RXRα^−/−/RARγ^−/− cells.
(§2) F9 cells were cultured and induced to differentiate into primitive, parietal and visceral endoderm-like cells as previously described (Boylan, J., et al., Proc. Natl. Acad. Sci. USA 90:9601-9605 (1993); Clifford, J., et al., EMBO J. 15:4142-4155 (1996)).
(§3) RNA preparation, RT-PCR, and Southern blotting were performed as previously described (Bouillet, P., et al., Dev. Biol. 170:420-433 (1995); Roy, B., et al., Mol. Cell. Biol. 15:6481-6487 (1995)). The PCR primers and end-labeled oligonucleotide probes for collagen IVα1, laminin B1, α-fetoprotein (AFP), and 36B4, were described previously (Clifford, J., et al ., EMBO J. 15:4142-4155 (1996)). Transcript levels were quantified using a BAS 2000 bioimaging analyzer (Fuji Ltd., Tokyo, Japan), and were normalized to the corresponding 36B4 signals.

WT F9 cells [2] = assay: as above; type: cell-based, murine; parameters: key to proportion of outer layer of cells displaying VE morphology: +++: more than 80%; ++: 50-80%; +: 10-50%; ±: not more than 10%; (−): no visible effect; conditions: WT, 10 d
Source text: as §1, §2, §3

RARγ−/− F9 cells [3] = assay: as above; type: cell-based, murine; parameters: key to proportion of outer layer of cells displaying VE morphology: +++: more than 80%; ++: 50-80%; +: 10-50%; ±: not more than 10%; (−): no visible effect; conditions: RARγ−/−, 10 d
Description: as §2, §3

RARα−/− F9 cells [4] = assay: Proliferation of F9 cells in monolayer culture (cell counting, [3H]thymidine incorporation, cell cycle FACS); type: cell-based, murine; conditions: 6 d
Description: (§4) Cells were plated in triplicate 3-cm culture wells (5×10^2 cells per well), and cell counting experiments were performed as previously described (Clifford, J., et al., EMBO J. 15:4142-4155 (1996)). [^3H]Thymidine incorporation assays were performed essentially as described (Clifford, J., et al., EMBO J. 15:4142-4155 (1996)), with the following modifications. […] The cell cycle profile of WT and mutant cells was determined as previously described (Clifford, J., et al. EMBO J. 15:4142-4155 (1996)).

RARγ−/− F9 cells [5] = assay: as above; type: cell-based, murine; conditions: 6 d
Description: as §4

WT F9 cells [6] = assay: as above; type: cell-based, murine; conditions: 6 d
Description: as §4

RXRα−/− F9 cells [7] = assay: as above; type: cell-based, murine; conditions: 6 d
RXRα−/−/RARα−/− F9 cells [8] = assay: as above; type: cell-based, murine; conditions: 6 d
RXRα−/−/RARγ−/− F9 cells = assay: as above; type: cell-based, murine; conditions: 6 d
RARγ−/− F9 cells [9] = assay: Apoptosis of F9 cells (Hoechst 33258 staining, FACS); type: cell-based, murine; conditions: 100 nM, 6 d
Description: (§5) Apoptosis was analyzed by both Hoechst staining of nuclei and FACS® analysis, as previously described (Clifford, J., et al., EMBO J. 15:4142-4155 (1996)).

WT F9 cells [10] = assay: as above; type: cell-based, murine; conditions: 6 d
Description: as §5

RARα−/− F9 cells [11] = assay: as above; type: cell-based, murine; parameters: key: (−): no visible effect; conditions: 6 d
Description: as §5

RXRα−/− F9 cells [12] = assay: Morphological differentiation of F9 cell aggregates into visceral endoderm (VE)-like cells (morphology, RT-PCR of markers); type: cell-based, murine; conditions: 10 d
Source text: (§6) Transcript levels were quantified using a BAS 2000 bioimaging analyzer (Fuji Ltd., Tokyo, Japan), and were normalized to the corresponding 36B4 signals.

RXRα−/−/RARα−/− F9 cells [13] = assay: as above; type: cell-based, murine; conditions: RXRα−/−/RARα−/−, 10 d
Source text: as §6

RXRα−/− F9 cells [14] = assay: Apoptosis of F9 cells (Hoechst 33258 staining, FACS); type: cell-based, murine; conditions: 100 nM, 6 d
RXRα−/−/RARα−/− F9 cells [15] = assay: as above; type: cell-based, murine; conditions: 100 nM, 6 d
mouse RXRγ (mouse) = mouse RXRγ (mouse) (UniProt P28705); assay: cell-based or functional assay
Chain of mouse RXRγ (mouse) (P28705 whole entry): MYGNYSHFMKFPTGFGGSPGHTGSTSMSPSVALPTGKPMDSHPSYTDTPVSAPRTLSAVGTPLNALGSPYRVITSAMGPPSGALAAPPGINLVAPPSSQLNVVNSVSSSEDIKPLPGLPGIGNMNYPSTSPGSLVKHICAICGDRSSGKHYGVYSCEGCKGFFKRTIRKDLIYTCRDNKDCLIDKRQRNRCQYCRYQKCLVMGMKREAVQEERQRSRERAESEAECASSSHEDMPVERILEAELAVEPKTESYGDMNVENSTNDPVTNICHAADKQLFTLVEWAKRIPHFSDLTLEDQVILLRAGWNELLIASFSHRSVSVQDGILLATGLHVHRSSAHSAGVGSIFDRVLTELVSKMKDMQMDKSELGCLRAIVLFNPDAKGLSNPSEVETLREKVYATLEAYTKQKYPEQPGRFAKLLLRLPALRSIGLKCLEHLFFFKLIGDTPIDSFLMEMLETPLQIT

Row | Molecule | proportion of outer layer of cells displaying VE morphology (RARα−/− F9 cells [1]; 100 nM) | proportion of outer layer of cells displaying VE morphology (WT F9 cells [2]; 10 nM) | proportion of outer layer of cells displaying VE morphology (WT F9 cells [2]; 100 nM) | proportion of outer layer of cells displaying VE morphology (RARγ−/− F9 cells [3]; 10 nM) | proportion of outer layer of cells displaying VE morphology (RARγ−/− F9 cells [3]; 100 nM) | number of cells in percent relative to cells grown in 0.1% ethanol (RARα−/− F9 cells [4]; 10 nM) [%] | number of cells in percent relative to cells grown in 0.1% ethanol (RARα−/− F9 cells [4]; 100 nM) [%] | number of cells in percent relative to cells grown in 0.1% ethanol (RARγ−/− F9 cells [5]; 10 nM) [%] | number of cells in percent relative to cells grown in 0.1% ethanol (RARγ−/− F9 cells [5]; 100 nM) [%] | number of cells in percent relative to cells grown in 0.1% ethanol (WT F9 cells [6]; 10 nM) [%] | number of cells in percent relative to cells grown in 0.1% ethanol (WT F9 cells [6]; 100 nM) [%] | number of cells in percent relative to cells grown in 0.1% ethanol (RXRα−/− F9 cells [7]; 10 nM) [%] | number of cells in percent relative to cells grown in 0.1% ethanol (RXRα−/− F9 cells [7]; 100 nM) [%] | number of cells in percent relative to cells grown in 0.1% ethanol (RXRα−/−/RARα−/− F9 cells [8]; 10 nM) [%] | number of cells in percent relative to cells grown in 0.1% ethanol (RXRα−/−/RARα−/− F9 cells [8]; 100 nM) [%] | number of cells in percent relative to cells grown in 0.1% ethanol (RXRα−/−/RARγ−/− F9 cells; 10 nM) [%] | number of cells in percent relative to cells grown in 0.1% ethanol (RXRα−/−/RARγ−/− F9 cells; 100 nM) [%] | proportion of apoptotic nuclei and subcellular fragments (Hoechst 33258) (RARγ−/− F9 cells [9]) | proportion of apoptotic nuclei and subcellular fragments (Hoechst 33258) (WT F9 cells [10]; 100 nM) | proportion of apoptotic nuclei and subcellular fragments (Hoechst 33258) (RARα−/− F9 cells [11]; 100 nM) | other results
1 | CC1(C)C(=O)C(C)(C)c2cc(C(=O)Nc3ccc(C(=O)O)cc3)ccc21 [RARα agonist] | (−) | (−) | (−) | (−) | ± (not more than 10%) | 100 | 100 | 100 | 100 | 100 | 100 | 100 | 100 | 100 | 100 | 124 | 143 | (−) | (−) | (−) | 
2 | CC1(C)CCC(C)(C)c2cc([C@@H](O)C(=O)Nc3ccc(C(=O)O)cc3F)ccc21 [RARγ agonist] | +++ (more than 80%) | ± (not more than 10%) | +++ (more than 80%) | (−) | (−) | 100 | 30 | 100 | 100 | 100 | 37 | 100 | 51 | 100 | 49 | 100 | 100 | (−) | + (>1-10%) | + (>1-10%) | proportion of outer layer of cells displaying VE morphology (RARα−/− F9 cells [1]; 1 nM): (−); proportion of outer layer of cells displaying VE morphology (RARα−/− F9 cells [1]; 10 nM): +++ (more than 80%); proportion of outer layer of cells displaying VE morphology (WT F9 cells [2]; 1 nM): (−); proportion of outer layer of cells displaying VE morphology (RXRα−/− F9 cells [12]; 10 nM): + (10-50%); proportion of outer layer of cells displaying VE morphology (RXRα−/− F9 cells [12]; 100 nM): +++ (more than 80%); proportion of outer layer of cells displaying VE morphology (RXRα−/−/RARα−/− F9 cells [13]; 10 nM): + (10-50%); proportion of outer layer of cells displaying VE morphology (RXRα−/−/RARα−/− F9 cells [13]; 100 nM): +++ (more than 80%); proportion of outer layer of cells displaying VE morphology (RARγ−/− F9 cells [3]; 1 nM): (−); proportion of apoptotic nuclei and subcellular fragments (Hoechst 33258) (WT F9 cells [10]; 10 nM): (−); proportion of apoptotic nuclei and subcellular fragments (Hoechst 33258) (RXRα−/− F9 cells [14]): ±* (asterisks less than that in combination with 1 μM panRXR agonist); proportion of apoptotic nuclei and subcellular fragments (Hoechst 33258) (RARα−/− F9 cells [11]; 10 nM): (−); proportion of apoptotic nuclei and subcellular fragments (Hoechst 33258) (RXRα−/−/RARα−/− F9 cells [15]): ±* (asterisks less than that in combination with 1 μM panRXR agonist)
3 | mouse RARα (from UniProt P11416 1-462) (receptor) |  |  |  |  |  |  |  |  |  |  |  |  |  |  |  |  |  |  |  |  | CAT activity of the C1 reporter (D2R promoter) in COS-1 cells cotransfected with RARα and RXRγ, in the presence of t-RA and 9-cis-RA (mouse RXRγ (mouse)): 45 fold; CAT activity of the C2 reporter in COS-1 cells coexpressing RARα/RXRγ, in the presence of t-RA and 9-cis-RA (mouse RXRγ (mouse)): 66 fold; CAT activity of the C3 reporter (D2R RARE upstream of the TK promoter) in COS-1 cells cotransfected with RARα/RXRγ, in the presence of t-RA and 9-cis-RA (mouse RXRγ (mouse)): 11 fold
